Data from patent publication US4605654A, “2-(arylalkyloxymethyl)morpholines and the central nervous system compositions” (P. F. Medicament, priority 1984, dated 1986).
Counter-ions that a name gives are not always drawn. Like-named read-outs stand apart in the source and are kept apart here.

Legend:
physchem = conditions: water
[1] = system: 5-HTP (5-hydroxytryptophan); assay: 5-HTP (5-hydroxytryptophan) potentiation test (Christensen et al.): head movements and tremors; assay type: in vivo, mice; conditions: for ED50: Mus musculus, 0.25 h; for activity in the 5-HTP potentiation test: in words
Procedure: The mice receive an intravenous injection of 5-HTP (100 mg/10 ml/kg) after oral administration of the compounds to be studied (25 ml/kg). Fifteen minutes after the injection of 5-HTP, the presence and intensity of head movements and tremors are noted.

nociceptive reactions = assay: Heating-plate test, analgesic activity (WOOLFE and MacDONALD); assay type: in vivo; conditions: mouse, oral, 100 mg/kg; 30 min; plate 65° C.
Procedure: The products to be tested are administered to the mouse orally. 30 minutes later, the mice are placed on a plate brought to 65° C. The nociceptive reactions are assessed objectively in terms of the licking of the forepaws. The time for this response to appear is noted.
The method of calculation used is that described by HARRIS L. S. and PIERSON A. K. (1964, J. Pharmacol. Exp. Ther., 143, 141-148).

[2] = mice, oral, 5-HTP i.v. 100 mg/10 ml/kg, observed 15 min after 5-HTP, read-out: ED50

For `c1ccc2c(c1)OCC(COCC1CNCCO1)O2` (stereo not drawn) [Example 17, 2-{[(1,4-Benzodioxan-2-yl)methoxy]methyl}morpholine hydrogen maleate], the solubility (Solubility in water) was 100 mg/mL.
`CC(OCC1CNCCO1)c1ccccc1` (stereo not drawn) [Example 37, 2-[(1-Phenylethyloxy)methylmorpholine hydrogen oxalate] showed a solubility (Solubility in water) of 50 mg/mL.
For `O=C(O)C(=O)O.Oc1ccc(COCC2CNCCO2)cc1` (stereo not drawn) [Example 42, 2-[(4-Hydroxybenzyloxy)methyl]morpholine hydrogen oxalate], the solubility (physchem) was 200 mg/mL.
With `Clc1cccc(Cl)c1COCC1CNCCO1` (stereo not drawn) [Example 14, 2-[(2,6-Dichlorobenzyloxy)methyl]morpholine hydrogen maleate] the ED50 [1, 2] was 18 mg/kg, the “PERCENTAGE ANALGESIA” value (nociceptive reactions) was 23% and the solubility (Solubility in water) was 50 mg/mL.
Compound `Clc1ccc(COCC2CNCCO2)cc1` (stereo not drawn) [Example 10, 2-[(4-Chlorobenzyloxy)methyl]morpholine hydrogen maleate] has a solubility (Solubility in water) of 60 mg/mL.
`COc1ccc(COCC2CNCCO2)cc1` (stereo not drawn) [Example 4, 2-[(4-methoxybenzyloxy)methyl]morpholine hydrogen oxalate] gave a solubility (Solubility in water) of 40 mg/mL.
In the case of `CCC(=O)O[C@](Cc1ccccc1)(c1ccccc1)[C@H](C)CN(C)C` [Dextropropoxyphene, reference compound], the “PERCENTAGE ANALGESIA” value (nociceptive reactions) is reported as 15%.
For `Cc1ccccc1COCC1CNCCO1` (stereo not drawn) [Example 5, 2-[(2-Methylbenzyloxy)methyl]morpholine hydrogen maleate], the ED50 [1, 2] was 16 mg/kg, the “activity in the 5-HTP potentiation test” value ([1]; mice, oral) was “activity” and the “PERCENTAGE ANALGESIA” value (nociceptive reactions) was 20%.
`Clc1ccc(COCC2CNCCO2)cc1Cl` (stereo not drawn) [Example 13, 2-[(3,4-Dichlorobenzyloxy)methyl]morpholine hydrogen maleate] showed a solubility (Solubility in water) of 10 mg/mL.
`Oc1cccc(COCC2CNCCO2)c1` (stereo not drawn) [Example 43, 2-[(3-Hydroxybenzyloxy)methyl]morpholine hydrogen oxalate] showed a solubility (Solubility in water) of 100 mg/mL.
With `CCOc1ccccc1COCC1CNCCO1` (stereo not drawn) [Example 11, 2-[(2-Ethoxybenzyloxy)methyl]morpholine hydrogen maleate] the ED50 [1, 2] was 15 mg/kg, the “activity in the 5-HTP potentiation test” value ([1]; mice, oral) was “activity” and the “PERCENTAGE ANALGESIA” value (nociceptive reactions) was 16%. The solubility (Solubility in water) was 30 mg/mL.
`Nc1ccc(COCC2CNCCO2)cc1` (stereo not drawn) [Example 44, 2-[(4-Aminobenzyloxy)methyl]morpholine dihydrogen succinate] gave a solubility (Solubility in water) of 60 mg/mL.
`Clc1ccc(COCC2CNCCO2)c(Cl)c1` (stereo not drawn) [Example 12, 2-[(2,4-Dichlorobenzyloxy)methyl]morpholine hydrogen maleate] showed a solubility (Solubility in water) of 40 mg/mL.
Work on `Fc1cccc(Cl)c1COCC1CNCCO1` (stereo not drawn) [Example 15, 2-[(2-Fluoro-6-chlorobenzyloxy)methyl]morpholine hydrogen maleate] yielded a solubility (Solubility in water) of 30 mg/mL.
In the case of `Clc1cccc(COCC2CNCCO2)c1` (stereo not drawn) [Example 9, 2-[(3-Chlorobenzyloxy)methyl]morpholine hydrogen maleate], the ED50 [1, 2] is reported as 15 mg/kg, the “activity in the 5-HTP potentiation test” value ([1]; mice, oral) is reported as “activity” and the “PERCENTAGE ANALGESIA” value (nociceptive reactions) is reported as 16%. The solubility (Solubility in water) was 20 mg/mL.
`c1ccc2nc(N3CCNCC3)ccc2c1` [Quipazine, reference compound] showed an ED50 ([1]; po) of 15 mg/kg.
For `COc1cccc(COCC2CNCCO2)c1` (stereo not drawn) [Example 3, 2-[(3-Methoxybenzyloxy)methyl]morpholine hydrogen maleate], the ED50 [1, 2] was 10 mg/kg, the “activity in the 5-HTP potentiation test” value ([1]; mice, oral) was “activity” and the solubility (Solubility in water) was 10 mg/mL.
Work on `Nc1cccc(COCC2CNCCO2)c1.O=C(O)CCC(=O)O` (stereo not drawn) [Example 45, 2-[(3-Aminobenzyloxy)methyl]morpholine dihydrogen succinate] yielded a solubility (physchem) of 120 mg/mL.
With `Cc1cccc(COCC2CNCCO2)c1` (stereo not drawn) [Example 6, 2-[(3-Methylbenzyloxy)methyl]morpholine hydrogen maleate] the solubility (Solubility in water) was 30 mg/mL.
With `c1ccc(COc2ccc(COCC3CNCCO3)cc2)cc1` (stereo not drawn) [Example 42b, 2-[4-Benzyloxybenzyloxy)methyl]morpholine hydrogen oxalate] the solubility (Solubility in water) was 10 mg/mL.
With `COc1ccccc1COCC1CNCCO1` (stereo not drawn) [Example 2, 2-[(2-Methoxybenzyloxy)methyl]morpholine hydrogen fumarate] the solubility (Solubility in water) was 50 mg/mL.
In the case of `c1ccc(COCC2CNCCO2)cc1` (stereo not drawn) [Example 1, 2-(benzyloxymethyl)morpholine hydrogen maleate], the solubility (Solubility in water) is reported as 100 mg/mL.
With `Cc1ccc(COCC2CNCCO2)cc1` (stereo not drawn) [Example 7, 2-[(4-Methylbenzyloxy)methyl]morpholine hydrogen oxalate] the solubility (Solubility in water) was 20 mg/mL.
For `Clc1ccccc1COCC1CNCCO1` (stereo not drawn) [Example 8, 2-[(2-Chlorobenzyloxy)methyl]morpholine hydrogen maleate], the ED50 [1, 2] was 15 mg/kg, the “activity in the 5-HTP potentiation test” value ([1]; mice, oral) was “activity” and the solubility (Solubility in water) was 20 mg/mL.
With “2-[(3-Phenylpropyloxy)methyl]morpholine hydrogen oxalate [Example 16]” the “activity in the 5-HTP potentiation test” value ([1]; mice, oral) was “activity”.
